Experimental data reported in patent US11603391B2, “CATH2 derivatives” (Universiteit Utrecht Holding B.V., priority 2014, dated 2023).
No end group written: not given here.

Key:
HD11 cells [1] = assay: Neutralization of LPS-induced interleukin-1β transcription in HD11 cells (real time PCR); type: cell-based, chicken; details: 20 μM peptide pre-incubated with 50 ng/ml LPS; 4 h
Description: (§1) FIG. 11A-11B—Neutralization of lipopolysaccharide-induced interleukin-1β induction and nitric oxide production in HD11 cells by CMAP27 derived peptides. HD11 cells were seeded in 96 wells tissue culture treated plates (2×10^5 cell/mL) in RPMI-1640/10% FCS. Final concentrations of 50 ng/ml LPS were pre-incubated with or without 20 μM peptide for 30 min at 37° C. (5% CO2), applied to the cells and incubated for 4 h and 24 h. A) Transcription levels of interleukin-1 were determined by real time PCR (4 h only). B) Supernatants were collected for the determination of nitric oxide production (24 h incubations only) using the Griess assay. Significance levels: *P<0.05, **P<0.01, ***P<0.001. Data represents means±SEM from 3-4 independent experiments.
as §1, with “FIG. 12A-12B—Substitution” for “FIG. 11A-11B—Neutralization”, “of phenylalanine residues by tryptophan enhances the” for “of lipopolysaccharide-induced interleukin-1β induction and nitric oxide production”, “in vitro LPS neutralization capacity of” for “in HD11 cells by”, “h or” for “h and”
(§2) HD11 cells were seeded in 96 wells tissue culture treated plates (2×10^5 cell/mL) in RPMI-1640/10% FCS. Final concentrations of 50 ng/ml Salmonella minnesota LPS were pre-incubated with or without 20 μM peptide for 30 min at 37° C. (5% CO2), applied to the cells and incubated for 4 h and 24 h. A) Transcription levels of interleukin-1 were determined by real time PCR (4 h only). B) Supernatants were collected for the determination of nitric oxide production (24 h incubations only) using the Griess assay.

J774.A1 cells = assay: Inhibition of APEC O78-induced TNFα production by macrophages (ELISA); type: cell-based, murine; details: 5 μM peptide, 2 h, DMEM/10% FCS; for inhibition of TNFα production induced by heat-killed bacteria: 3×10^5 CFU/ml heat-killed APEC O78; for inhibition of TNFα production induced by live bacteria: 3×10^5 CFU/ml live APEC O78
Description: (§3) FIG. 9A-9C—Antibacterial activity of CMAP27 derived peptides in vitro against an avian pathogenic Escherichia coli O78 (APEC O78) field isolate. A) Antibacterial activity of peptides (5 μM) against APEC O78 (2×10^6 CFU/ml) in 50% Mueller Hinton broth using colony count assays. B) Antibacterial activity of peptides (5 μM) against APEC O78 (3×10^5 CFU/ml) in DMEM containing 10% fetal calf serum (FCS) using colony count assays. C) TNFα production by J774.A1 cells (ELISA) after 2 h incubation at 37° C. with live or heat-killed APEC O78 (3×10^5 CFU/m) in DMEM/10% FCS, in the presence or absence of 5 μM peptide. Data represents means±SEM from 3 independent experiments.
Peptide-mediated inhibition of macrophage activation induced by live or heat-killed APEC O78, was examined using J774.A1 cells, a murine macrophage cell line. For this purpose, J774.A1 cells (150,000 cells/well) cultured in DMEM containing 10% FCS were exposed during 2 h at 37° C. to 3×10^5 CFU/ml APEC O78 with or without 5 μM peptide, after which supernatants were collected and used to determine TNFα production (ELISA).

HD11 cells [2] = assay: DNA-induced nitric oxide production in HD11 cells (Griess assay); type: cell-based, chicken; details: 5 μM peptide; 2.5 nM ODN-2006; 17 h
Description: (§4) FIG. 13A-13B—CMAP27 derived peptides enhance DNA uptake and DNA-induced activation. A) HD11 cells were stimulated during 4 h with 2.5 nM Alexa-Fluor 488 labeled ODN-2006 in the absence and presence of CMAP27 derived peptides (5 μM), after which DNA uptake was analyzed by flow cytometry. B) Supernatants of HD11 cells stimulated for longer time (17 h) under these same conditions were collected and used for determination of nitric oxide production using the Griess assay. Data represents means±SEM from 3-4 independent experiments.
(§5) To study effects of peptides on the uptake of DNA, HD11 cells were seeded 3×10^5 cells in 24-wells plates, stimulated during 4 h with 2.5 nM Alexa-Fluor 488 labeled ODN-2006 in the absence and presence of CMAP27 derived peptides (5 μM), after which DNA uptake was analyzed by flow cytometry. Activation of HD11 cells was examined by collecting supernatants after 17 h under the same conditions and determination of nitric oxide production.

HD11 cells [3] = assay: Neutralization of LPS-induced nitric oxide production in HD11 cells (Griess assay); type: cell-based, chicken; details: 20 μM peptide pre-incubated with 50 ng/ml LPS; 24 h
Description: as §1
as §1, with “FIG. 12A-12B—Substitution” for “FIG. 11A-11B—Neutralization”, “of phenylalanine residues by tryptophan enhances the” for “of lipopolysaccharide-induced interleukin-1β induction and nitric oxide production”, “in vitro LPS neutralization capacity of” for “in HD11 cells by”, “h or” for “h and”
as §2

[4] = test system: avian pathogenic Escherichia coli O78 (APEC O78) field isolate; assay: Antibacterial colony count assay in DMEM containing 10% fetal calf serum; type: cell-based; details: 5 μM peptide, 3×10^5 CFU/ml, 2 h at 37° C., DMEM/10% FCS
Description: as §3
To test if peptides would be able to inhibit bacteria under more challenging conditions, e.g. in the presence of salts and serum proteins, APEC O78 was incubated with peptide in DMEM medium containing 10% fetal calf serum. In brief, bacterial survival was estimated by incubating 3×10^5 CFU/ml APEC O78 during 2 h at 37° C. in DMEM/10% FCS in the presence or absence of 5 μM peptide, after which serial dilutions were made, spread on agar media and colonies were enumerated after 24 h incubation at 37° C.

HD11 cells [5] = assay: Uptake of Alexa-Fluor 488 labeled ODN-2006 by HD11 cells (flow cytometry); type: cell-based, chicken; details: 5 μM peptide; 2.5 nM Alexa-Fluor 488 labeled ODN-2006; 4 h
Description: as §4, §5

HD11 cells [6] = assay: Chemokine induction in HD11 cells (real time PCR); type: cell-based, chicken; details: 20 μM peptide
Description: FIG. 10—Chemokine induction by CMAP27 derived peptides in HD11 cells. HD11 cells were seeded in 96 wells tissue culture treated plates (2×10^5 cell/mL) in RPMI-1640/10% FCS and incubated at 37° C. (5% CO2) with peptide (20 μM) supplemented medium during 4 h (open bars) or 24 h (closed bars). Transcription levels of interleukin-1β, IL-8 (CXCLi2), monocyte chemotactic protein-3 (MCP-3) and RANTES (CCLi4) were determined by real time PCR. Significance levels: *P<0.05, **P<0.01, ***P<0.001. Data represents means±SEM from 3-4 independent experiments.
HD11 cells, a chicken macrophage cell line, were seeded in 96 wells tissue culture treated plates (2×10^5 cell/mL) in RPMI-1640/10% FCS and incubated at 37° C. (5% CO2) with peptide (20 μM) supplemented medium during 4 h or 24 h. Transcription levels of interleukin-1β, -8 (CXCLi2), monocyte chemotactic protein-3 (MCP-3) and RANTES (CCLi4) were determined by real time PCR.

Substance: CMAP1-21-NH2: C-terminally truncated CMAP27 derivative, residues 1-21
- LPS-induced IL-1β expression blocked (HD11 cells [1]): 93.5%
- inhibition of TNFα production induced by heat-killed bacteria (J774.A1 cells): substantially inhibited
- inhibition of TNFα production induced by live bacteria (J774.A1 cells): substantially inhibited
- DNA-induced nitric oxide production (HD11 cells [2]): increasing
- LPS-induced NO production blocked (HD11 cells [3]): 78.9%
- inhibition of bacterial growth (antibacterial activity, in words) [4]: substantially inhibited
- uptake of ODN-2006 by HD11 cells (HD11 cells [5]): enhanced the uptake

Substance: CMAP4-21-NH2: N-terminally truncated variant of CMAP1-21 (RFLRKIRRFRPKVTITIQ-NH2)
- LPS-induced IL-1β expression blocked (HD11 cells [1]): 80.5%
- DNA-induced nitric oxide production (HD11 cells [2]): increasing
- LPS-induced NO production blocked (HD11 cells [3]): 51%
- inhibition of bacterial growth (antibacterial activity, in words) [4]: substantially inhibited
- uptake of ODN-2006 by HD11 cells (HD11 cells [5]): enhanced the uptake

Substance: CMAP7-21-NH2: N-terminally truncated variant of CMAP1-21, 15 amino acid residues (RKIRRFRPKVTITIQ-NH2)
- LPS-neutralizing activity (block of LPS-induced IL-1β expression, in words) (HD11 cells [1]): lack LPS-neutralizing activity
- induction of CXCLi2/IL-8 transcription (HD11 cells [6]; 4 h or 24 h): maintained a capacity to induce
- induction of MCP-3 transcription (HD11 cells [6]; 4 h or 24 h): maintained a capacity to induce
- inhibition of TNFα production induced by heat-killed bacteria (J774.A1 cells): inhibited to some extent
- DNA-induced nitric oxide production (HD11 cells [2]): increasing
- inhibition of bacterial growth (antibacterial activity, in words) [4]: lacking antibacterial activity
- uptake of ODN-2006 by HD11 cells (HD11 cells [5]): enhanced the uptake

Substance: RFGRFLRKIRRFRPKVTITIQGSARF-NH2 [CMAP1-26-NH2]
- LPS-induced IL-1β expression blocked (HD11 cells [1]): 90.8%
- induction of CXCLi2/IL-8 transcription (HD11 cells [6]; 4 h or 24 h): induce transcription
- induction of MCP-3 transcription (HD11 cells [6]; 4 h or 24 h): induce transcription
- induction of proinflammatory cytokine IL-1β transcription (HD11 cells [6]; 4 h or 24 h): not induced
- induction of CCLi4/RANTES transcription (HD11 cells [6]; prolonged stimulation (24 h) needed): induce transcription
- inhibition of TNFα production induced by heat-killed bacteria (J774.A1 cells): substantially inhibited
- inhibition of TNFα production induced by live bacteria (J774.A1 cells): substantially inhibited
- DNA-induced nitric oxide production (HD11 cells [2]): increasing
- LPS-induced NO production blocked (HD11 cells [3]): 96.2%
- inhibition of bacterial growth (antibacterial activity, in words) [4]: substantially inhibited
- surviving bacteria ([4]; detection limit): < 100 cells/ml
- uptake of ODN-2006 by HD11 cells (HD11 cells [5]): enhanced the uptake
